The results in this text go back to ChEMBL document CHEMBL5365434, “Cyclic Diguanylate G-Quadruplex Inducer-Nitric Oxide Donor Conjugate as a Bifunctional Antibiofilm Agent and Antibacterial Synergist against Pseudomonas aeruginosa with a Hyperbiofilm Phenotype” (J Med Chem, 2023).

Calls of active or inactive are those of the source. The calls are words filed in the database; no cut-off is given here. A value given as a limit tells only on which side of the number the result lay.

Data set [1] deals with Pseudomonas aeruginosa. The experiment in a line: Antibiofilm activity against Pseudomonas aeruginosa PAO1 delta wspF at 1.25 uM measured after 24 hrs by crystal violet staining based analysis. The class given is functional, organism-based.
Another data set deals with Quadruplex DNA. Put plainly: Induction of c-diGMP G quadruplex formation at 30 uM incubated for 12 hrs by circular dichroism analysis. The class given is nucleic-acid assay.
The subject of data set [2] is Pseudomonas aeruginosa. The experiment in a line: Antibacterial activity against Pseudomonas aeruginosa PAO1 delta wspF assessed as reduction in c-di-GMP induced EMP production at 1.25 uM incubated for 3 hrs by Congo red dye based spectrophotometric assay relative to control. Type of data set: functional. On the set-up: scale not given: the % may be the effect or the level left.

In data set [3] the test system is Pseudomonas aeruginosa. Put plainly: Antibacterial activity against Pseudomonas aeruginosa PAO1 delta wspF assessed as inhibition of biofilm formation at 1.25 uM incubated for 24 hrs relative to control. The class given is functional. On the set-up: scale not given: the % may be the effect or the level left.
The test system of data set [4] is Pseudomonas aeruginosa. Put plainly: Antibacterial activity against Pseudomonas aeruginosa PAO1 delta wspF assessed as reduction in c-di-GMP induced EMP production at 0.156 to 1.25 uM incubated for 3 hrs by Congo red dye based spectrophotometric assay. Type of data set: functional, organism-based. Conditions: dose 0.156-1.25 µM.
The subject of data set [5] is Pseudomonas aeruginosa. The experiment in a line: Anti-motility activity against Pseudomonas aeruginosa PAO1 delta wspF assessed as promotion of swarming motility measured after 24 hrs. The class given is functional, organism-based. The note with it: dose 0.156-1.25 µM.
The next data set deals with Vero. The experiment in a line: Cytotoxicity against African green monkey Vero cells at 0.156 to 20 uM measured after 24 hrs by MTT assay relative to control. Type of data set: toxicity, cell-based. Conditions: chlorocebus sabaeus, dose 0.156-20 µM.
Data set [6] relates to Pseudomonas aeruginosa. The experiment in a line: Synergistic antibacterial activity against Pseudomonas aeruginosa PAO1 delta wspF assessed as inhibition of reproduction of biofilm bacteria at upto 40 uM incubated for 15 hrs in presence of tobramycin by checker board assay. The class given is functional, organism-based.
Data set [7] deals with Pseudomonas aeruginosa. Put plainly: Antibacterial activity against Pseudomonas aeruginosa PAO1 delta wspF assessed as eradication of preformed bacterial biofilm at 0.625 to 40 uM incubated for 15 hrs by crystal violet staining based analysis. Type of data set: functional, organism-based. The note with it: dose 0.625-40 µM.
In another data set the test system is DNA. The experiment in a line: Induction of pBR322 DNA (unknown origin) damage assessed as DNA embedding effect by measuring tail formation incubated for 10 mins by electrophoresis assay. The class given is toxicity.
The subject of data set [8] is Caenorhabditis elegans. Put plainly: Anti-infective activity against Caenorhabditis elegans assessed as survival rate at MBC level incubated for 24 hrs relative to control. The class given is functional.
The subject of data set [9] is Pseudomonas aeruginosa. Put plainly: Synergistic antibacterial activity against Pseudomonas aeruginosa PAO1 delta wspF assessed as inhibition of reproduction of biofilm bacteria at 2X MBC in presence of streptozocin by checker board assay. Type of data set: functional, organism-based.
The subject of data set [10] is Pseudomonas aeruginosa. Put plainly: Antibacterial activity against Pseudomonas aeruginosa PAO1 delta wspF assessed as eradication of mature biofilm at 0.16 to 40 uM incubated for 15 hrs by crystal violet staining based analysis relative to control. The class given is functional. Conditions: dose 0.16-40 µM.
Data set [11] concerns Caenorhabditis elegans. Put plainly: Synergistic anti-infective activity against Caenorhabditis elegans assessed as survival rate at 0.16 to 20 uM incubated for 24 hrs in presence of tobramycin relative to control. Type of data set: functional. The note with it: dose 0.16-20 µM.
Data set [12] concerns Caenorhabditis elegans. Put plainly: Synergistic anti-infective activity against Caenorhabditis elegans assessed as survival rate at 10 uM incubated for 24 hrs in presence of tobramycin relative to control. Type of data set: functional.
Data set [13] relates to Pseudomonas aeruginosa. The experiment in a line: Synergistic antibacterial activity against Pseudomonas aeruginosa PAO1 delta wspF assessed as inhibition of reproduction of biofilm bacteria at high concentration incubated for 15 hrs in presence of tobramycin by checker board assay. The class given is functional, organism-based.
For data set [14], the system named is Pseudomonas aeruginosa. The experiment in a line: Antibacterial activity against Pseudomonas aeruginosa PAO1 delta wspF assessed as eradication of preformed bacterial biofilm at 1.25 uM incubated for 15 hrs by crystal violet staining based analysis relative to control. The class given is functional.
The nature of data set [15]: Cytotoxicity against African green monkey Vero cells assessed as survival rate at 0.156 to 20 uM measured after 48 hrs by MTT assay relative to control. Type of data set: toxicity, cell-based. The note with it: chlorocebus sabaeus, dose 0.156-20 µM, read-out: Survival.
Data set [16] relates to Pseudomonas aeruginosa. The experiment in a line: Synergistic antibacterial activity Pseudomonas aeruginosa PAO1 delta wspF assessed as fold reduction in survival of biofilm bacteria at 1.25 to 10 uM incubated for 15 hrs in presence of tobramycin by checker board assay. Conditions: dose 1.25-10 µM. The class given is functional.
Data set [17] has as its system Pseudomonas aeruginosa. The experiment in a line: Antibiofilm activity against Pseudomonas aeruginosa PAO1 delta wspF assessed as increase in number of planktonic bacteria at 1.25 to 10 uM incubated for 2 hrs. Conditions: dose 1.25-10 µM. The class given is functional, organism-based.

On to `CNc1ccc(/C=C/c2ccc3ccccc3[n+]2C)cc1`, for which the outcome in the data set on Pseudomonas aeruginosa [1] and in the data set with Quadruplex DNA was Active.

In the case of `CCNc1ccc(/C=C/c2ccc3ccccc3[n+]2C)cc1`, the outcome in the data set with Pseudomonas aeruginosa [1] and with Quadruplex DNA was Active.

In the case of `CCCNc1ccc(/C=C/c2ccc3ccccc3[n+]2C)cc1`, the outcome in the data set on Pseudomonas aeruginosa [1] and in the data set on Quadruplex DNA was Active.

For `CNc1ccc(/C=C/c2sc3ccccc3[n+]2C)cc1OC.[I-]`, the Activity in the data set with Pseudomonas aeruginosa [2] was less than 50%; in the data set on Pseudomonas aeruginosa [3], 60%; with Pseudomonas aeruginosa [5], “Dose-Dependent Effect”; in the data set on Vero, greater than 98%; with DNA it was “Not Active”. For the same compound, the outcome in the data set on Pseudomonas aeruginosa [1], in the data set with Pseudomonas aeruginosa [4] and with Quadruplex DNA was Active. Moreover, the outcome in the data set on Pseudomonas aeruginosa [6] and with Pseudomonas aeruginosa [7] was inactive.

As to `CC(C)Nc1ccc(/C=C/c2sc3ccccc3[n+]2C)cc1`, the result with Pseudomonas aeruginosa [1] and with Quadruplex DNA was Active.

On to `CN1/C(=C/c2cc[n+](C)c3ccccc23)Sc2ccccc21.Cc1ccc(S(=O)(=O)[O-])cc1`, for which the Activity is on record as 20% in the data set on Caenorhabditis elegans [8] and “Active” in the data set on DNA. In the data set on Pseudomonas aeruginosa [9], the result was Active.

`CN(N=O)C(=O)N[C@@H](C=O)[C@@H](O)[C@H](O)[C@H](O)CO` [STREPTOZOCIN]: the Activity stood at 30% in the data set with Pseudomonas aeruginosa [10] and 25% with Caenorhabditis elegans [11].

On to `CCNc1ccc(/C=C/c2sc3ccccc3[n+]2C)cc1`, for which the outcome in the data set on Pseudomonas aeruginosa [1] and in the data set with Quadruplex DNA was Active.

In the case of `CCCNc1ccc(/C=C/c2sc3ccccc3[n+]2C)cc1`, the result with Pseudomonas aeruginosa [1] and in the data set on Quadruplex DNA was Active.

Take `CNc1ccc(/C=C/c2sc3ccccc3[n+]2C)cc1`: the outcome in the data set on Pseudomonas aeruginosa [1] and in the data set with Quadruplex DNA was Active.

Consider `COc1cc(/C=C/c2sc3ccccc3[n+]2C)ccc1N(C)N=O.[I-]`, for which the Activity with Pseudomonas aeruginosa [3] was 80%; with Caenorhabditis elegans [12], 60%; with Pseudomonas aeruginosa [14], 40%. Besides, the outcome with Pseudomonas aeruginosa [13] and in the data set with Pseudomonas aeruginosa [17] was Active. Besides, the viability at 48 h, up to 20 µM in data set [15] came out at 80%. Moreover, the “fold change (FC)” value with Pseudomonas aeruginosa [16] is 1000.
